Results from PubChem BioAssay (NCI).
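The compound was tested at five concentrations on cells cultured in 96-well plates, with a 48-hour exposure period. At the GI50, growth is halved. TGI denotes the concentration required for complete inhibition of growth.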

What was measured:
Experiment in all cases: NCI tumour cell line growth inhibition, 48 h
U251 CNS = system: U251 CNS
EKVX NSCLC = system: EKVX NSCLC
UO-31 renal = system: UO-31 renal
K-562 leukemia = system: K-562 leukemia
OVCAR-3 ovarian = system: OVCAR-3 ovarian
NCI-H460 lung = system: NCI-H460 lung
BT-549 breast = system: BT-549 breast
SN12C renal = system: SN12C renal
SF-295 CNS = system: SF-295 CNS
HCT-15 colon = system: HCT-15 colon

SMILES	GI50 (U251 CNS)	TGI (U251 CNS)	GI50 (EKVX NSCLC)	TGI (EKVX NSCLC)	GI50 (UO-31 renal)	TGI (UO-31 renal)	GI50 (K-562 leukemia)	TGI (K-562 leukemia)	GI50 (OVCAR-3 ovarian)	TGI (OVCAR-3 ovarian)	GI50 (NCI-H460 lung)	TGI (NCI-H460 lung)	GI50 (BT-549 breast)	TGI (BT-549 breast)	GI50 (SN12C renal)	TGI (SN12C renal)	GI50 (SF-295 CNS)	TGI (SF-295 CNS)	GI50 (HCT-15 colon)	TGI (HCT-15 colon)
Oc1c(C(c2ccc(F)cc2)N2CCCCC2)ccc2cncnc12 (centres undefined)	0.325 µM	> 100 µM	0.672 µM	45.9 µM	0.834 µM	6.62 µM	0.503 µM	> 100 µM	0.783 µM	> 100 µM	0.351 µM	14.1 µM	0.576 µM	> 100 µM	0.396 µM	> 100 µM	0.413 µM	> 100 µM	2.11 µM	> 100 µM
O=[N+]([O-])c1ccc2c(c1)C(N1CCN(CCO)CC1)Cc1ccc(F)cc1S2 (centres undefined)		24.3 µM		24.1 µM		18.1 µM		12.6 µM		54.6 µM		27.3 µM		23.1 µM		28.9 µM		14.1 µM		19 µM
CC1Cc2c(Cl)ncnc2N(C)c2ccccc21 (centres undefined)	3.92 µM	37.9 µM	3.13 µM	> 100 µM	3.37 µM	89.1 µM	4.44 µM	> 100 µM	3.4 µM	20.1 µM	3.87 µM	> 100 µM	5 µM	33.9 µM	3.4 µM	15.5 µM	3.28 µM	37.4 µM	3 µM	11.3 µM
C[C@]12CCC(=O)C=C1C[C@@H](O)[C@@H]1[C@@H]2CC[C@@]2(C)[C@H]1CC[C@]2(C)O		> 100 µM		> 100 µM		> 100 µM		> 100 µM		> 100 µM		> 100 µM		> 100 µM		> 100 µM		> 100 µM		> 100 µM
O=C(Nc1cccc([N+](=O)[O-])c1)c1cccc(C(=O)Nc2cccc([N+](=O)[O-])c2)c1	7.15 µM	> 68.2 µM	> 59.9 µM	> 100 µM	> 100 µM	> 100 µM	> 100 µM	> 100 µM	> 100 µM	> 100 µM	> 61.9 µM	> 100 µM	9.05 µM	> 100 µM	60.3 µM	> 100 µM	23.2 µM	> 90.4 µM	> 100 µM	> 100 µM
CCOC(=O)N1CCC(N=C2CSc3nnc(-c4cc(C(F)(F)F)cc(C(F)(F)F)c4)n3N2)CC1	1.77 µM	3.53 µM	1.77 µM	5.43 µM	1.66 µM	5.4 µM	2.88 µM	6.92 µM	2.01 µM	3.59 µM	2.11 µM	4.1 µM	1.89 µM	3.79 µM	1.7 µM	3.57 µM	1.51 µM	3.08 µM	2.29 µM	5.4 µM
NS(=O)(=O)c1ccc(-n2nc3c(c2-c2cccs2)Cc2ccccc2-3)cc1	12.3 µM	25.8 µM	11.9 µM	29.4 µM	12.2 µM	24.6 µM	0.858 µM	3.55 µM	14.4 µM	44.4 µM	> 100 µM	> 100 µM	12.4 µM	26.3 µM	12.2 µM	25 µM	13.8 µM	31.4 µM	12 µM	27.8 µM
COc1cc2c(cc1OC)C(Cl)C(c1ccc(Br)cc1)=C2Cl (centres undefined)		24.8 µM		17.2 µM		17.1 µM		41.9 µM		24.1 µM		25.8 µM		5.44 µM		25.4 µM		30.5 µM		23.6 µM
CC12CCC(C1)C(C)(C)C2OC(=O)c1ccccc1N (centres undefined)		32.6 µM		30.2 µM		30.8 µM		32.1 µM		30.8 µM		30.7 µM		34.3 µM		31.7 µM		35.6 µM		33.7 µM
CC1(C)OCC2OC(n3cnc4c(N)nc(Cl)nc43)C(OS(C)(=O)=O)C2O1 (centres undefined)		> 100 µM		> 100 µM		> 100 µM		> 100 µM		> 100 µM		> 100 µM		> 100 µM		> 100 µM		> 100 µM		> 100 µM
O=C1C=CC2C3C(=O)N(c4ccccc4)C(=O)C3C1N2Cc1ccccc1 (centres undefined)	2.29 µM	11.8 µM	7.78 µM	23.6 µM	3.42 µM	6.79 µM	1.67 µM	6.55 µM	3.45 µM	11.3 µM	3.49 µM	9.01 µM	3.45 µM	8.87 µM	1.64 µM	3.43 µM	6.41 µM	15.4 µM	1.74 µM	3.89 µM
COC(=O)CC[C@@H](C)[C@H]1CC[C@H]2[C@@H]3CC[C@@H]4C[C@H](O)CC[C@]4(C)[C@H]3CC[C@]12C		43.2 µM		35.6 µM		34.9 µM		65.7 µM		35 µM		39.9 µM		33.8 µM		33.2 µM		33.9 µM		33.7 µM
COc1ccc2c3ccnc(C(F)(F)F)c3n(CCCCN)c2c1	7.31 µM	21.2 µM	5.42 µM	23.6 µM	1.6 µM	8.36 µM	5.73 µM	22.8 µM	3.82 µM	15.3 µM	5.18 µM	17.7 µM	3.04 µM	12.5 µM	10.5 µM	28.7 µM	6.71 µM	22.6 µM	10.8 µM	25 µM
Nc1nc(-c2ccc3c(c2)/C(=C\c2cc(Br)c(O)c(Br)c2)C(=O)N3)cs1	12.8 µM	> 25 µM	> 25 µM	> 25 µM	19.1 µM	> 25 µM	10.6 µM	> 25 µM	8.14 µM	20.4 µM	16.4 µM	> 25 µM	11.4 µM	> 23.8 µM	> 25 µM	> 25 µM	10.1 µM	> 25 µM	> 20.2 µM	> 25 µM
COc1cccc(N2CC(O)=C(c3nc4ccccc4s3)C2=N)c1	0.42 µM	19.5 µM	9.24 µM	> 100 µM	0.717 µM	> 70.3 µM	< 0.0204 µM	> 100 µM	0.269 µM	0.82 µM	0.24 µM	> 100 µM	0.726 µM	> 100 µM	0.379 µM	5.63 µM	0.0744 µM	6.09 µM	0.09 µM	31.2 µM
Cc1nnc(N/N=C/c2ccc([N+](=O)[O-])o2)[nH]c1=O	0.289 µM	> 100 µM	1.05 µM	> 100 µM	0.931 µM	10.8 µM	0.796 µM	> 100 µM	0.429 µM	3.18 µM	3.19 µM	14.6 µM	0.566 µM	> 21.5 µM	0.589 µM	22.5 µM	1.93 µM	> 100 µM	1.86 µM	> 100 µM
CCN(CC)CCOc1nc2ccccc2c2c1-c1ccc(OC)cc1C2=O	0.446 µM	2.3 µM	1.59 µM	4.79 µM	0.13 µM	1.41 µM	0.276 µM	1.19 µM	0.642 µM	2.15 µM	0.317 µM	1.3 µM	3.29 µM	13.8 µM	0.502 µM	6.21 µM	1.91 µM	12.4 µM	0.472 µM	4.82 µM
NC1CC(=O)c2c(-c3cccs3)sc(-c3cccs3)c21 (centres undefined)	16.7 µM	34 µM	51.3 µM	> 100 µM	24.7 µM	> 100 µM	25 µM	> 100 µM	26.1 µM	92.4 µM	38.7 µM	> 100 µM	19.5 µM	63.8 µM	24.3 µM	69.8 µM	85.4 µM	> 100 µM	3.04 µM	22.4 µM
Cc1ccc2ccccc2c1CSc1nc(N)nc2c1ncn2CC(C)C		> 100 µM		> 100 µM		13.2 µM		> 100 µM		> 100 µM		> 96.2 µM		> 100 µM		> 100 µM		> 100 µM		> 100 µM
Cc1cc(N(CCC#N)S(=O)(=O)c2ccccc2)ccc1C=Nc1ccc(C(=O)O)cc1		38.2 µM		35.8 µM		21.8 µM		17.9 µM		21.5 µM		29.9 µM		> 100 µM		16.8 µM		44.8 µM		13.7 µM
O=C(Nc1ccc(Br)c2ccccc12)c1ccc2ccccc2c1O		35.2 µM		> 100 µM		12.9 µM		> 100 µM		35.7 µM		13.1 µM		11.3 µM		24.9 µM		8.65 µM		7.1 µM
CC(=O)OC1CC2(C)C(=CC1C1SCCS1)CCC1C2CCC2(C)C(OC(C)=O)CCC12 (centres undefined)		> 100 µM		> 100 µM		> 100 µM		> 100 µM		> 100 µM		> 100 µM		> 100 µM		> 100 µM		90 µM		> 100 µM
Cc1[nH]nc(C(F)(F)F)c1Cc1sc2c(c1C(=O)N1C[C@](C)(O)CO1)c(=O)n(C)c(=O)n2C(C)C	> 100 µM	> 100 µM	> 100 µM	> 100 µM	> 100 µM	> 100 µM		> 100 µM	> 100 µM	> 100 µM	> 100 µM	> 100 µM	> 100 µM	> 100 µM	> 100 µM	> 100 µM	> 100 µM	> 100 µM	> 100 µM	> 100 µM
OC(c1cc(C(F)(F)F)nc2c(Cl)cc(Cl)cc12)C1CCCCN1 (centres undefined)		> 48.3 µM		> 100 µM		3.22 µM		> 34.1 µM		12.8 µM		> 26.7 µM		28.2 µM		> 39.6 µM		25.4 µM		27.4 µM
Cn1nc(C(F)(F)F)cc1-c1cc(Cl)c(OCc2ccc(Cl)cc2)c(-c2ccc(Cl)c(C(F)(F)F)c2)c1O	1.05 µM	5.13 µM	1.21 µM	5.41 µM	1.12 µM	3.51 µM	0.312 µM	5.08 µM	1.13 µM	6.12 µM	0.852 µM	2.21 µM	0.995 µM	2.75 µM	0.785 µM	4.58 µM	0.997 µM	2.55 µM	0.764 µM	4.4 µM
Clc1cnc(Nc2ccc(OCCN3CCCC3)cc2)nc1NCc1ccco1	2.81 µM	11.4 µM	2.1 µM	6.47 µM	1.87 µM	11.6 µM	3.19 µM	52.6 µM	3.01 µM	9.75 µM	2.04 µM	5.36 µM	2.29 µM	7.47 µM	2.42 µM	10.6 µM	2.18 µM	6.63 µM	2.72 µM	11.8 µM
